The values that follow come from patent US6521634B2, “Uses of dl-THP” (The Hong Kong University of Science & Technology, priority 2001, dated 2003).

Like-named read-outs stand apart in the source and are kept apart here.

The subject of data set [1] is ICR mice. As to the kind of experiment: Hole-board test. The data set is classed as in vivo. As to conditions: 5 minute test. The method, then: ICR mice of either sex, weighing 14-17 g were used. Animals were housed in groups of four or five and were given food and water ad libitum and maintained on a 11 hour light: 13 hour dark cycle. All of the experimental groups had 12 animals per group.
dl-THP was dissolved in double distilled water and administered orally 1 hour before testing at concentrations as detailed below, with a total injection volume of 10 ml/kg. For the control group, double-distilled water was used as the vehicle.
All procedures were carried out in a quiet, air-conditioned laboratory between 08:00 and 13:00 at ambient temperature of 20-22° C. At the end of each session any boluses were removed and the box was thoroughly wiped with 70% ethanol.
The hole-board apparatus is a walled wood arena of 60×60×30 cm, with four equidistant 3 cm diameter holes spaced on the floor. The mice are placed on the center of the arena and the number of head-dips on the hole, the time spent head-dipping, the number of rearings and the time spent rearing are counted during a 5 minute test period (File SE et al., “The effects of triazolobenzodiazepines in two animal tests of anxiety and in the holeboard.”, Br J Pharmacol. November 1985;86(3):729-35; PMID: 2866006). After each trial, the floor of the apparatus was wiped and dried thoroughly with tissue to remove traces of the previous path.
The results from the locomotor activity test and the elevated plus-maze test are expressed as mean±standard error of mean (SEM). All data were submitted to analysis of variance (ANOVA). Post hoc comparisons between individual treatments and controls of the locomotor activity test, the hole-board test and the elevated plus-maze test were made using Dunnett's t-test. The level of significance was considered to be p<0.05.

The next data set has as its system rats. As to conditions: rat, in vivo, po; cited from earlier work.
Data set [2] deals with ICR mice. As to the kind of experiment: Locomotor activity test. The data set is classed as in vivo. As to conditions: 1 hour before 5 minute test. The method, then: ICR mice of either sex, weighing 14-17 g were used. Animals were housed in groups of four or five and were given food and water ad libitum and maintained on a 11 hour light: 13 hour dark cycle. All of the experimental groups had 12 animals per group. dl-THP was dissolved in double distilled water and administered orally 1 hour before testing at concentrations as detailed below, with a total injection volume of 10 ml/kg. For the control group, double-distilled water was used as the vehicle. All procedures were carried out in a quiet, air-conditioned laboratory between 08:00 and 13:00 at ambient temperature of 20-22° C. At the end of each session any boluses were removed and the box was thoroughly wiped with 70% ethanol. The ZIL-2 apparatus (Beijing Institute of Materia Medica) having dimensions of 60×60×12 cm was used to perform this test. It consists of four circular plastic boxes of 25 cm diameter, each having 6 equally distributed infrared photocells. The locomotor activity was counted automatically during a 5 minute test period. A decrease in the number of transitions reflects a decrease in locomotor activity. The results from the locomotor activity test and the elevated plus-maze test are expressed as mean±standard error of mean (SEM). All data were submitted to analysis of variance (ANOVA). Post hoc comparisons between individual treatments and controls of the locomotor activity test, the hole-board test and the elevated plus-maze test were made using Dunnett's t-test. The level of significance was considered to be p<0.05.

Another data set deals with α-1 adrenoceptors. As to conditions: rat cerebral cortex; previously performed studies; cited from earlier work.
Data set [3] concerns the target BDZ binding site of the GABAA receptor. As to the kind of experiment: competitive binding assay with [3H]-flunitrazepam. As to conditions: [3H]-flunitrazepam competition.
Data set [4] has as its system ICR mice. Put plainly: Elevated plus-maze test. The data set is classed as in vivo. The method, then: ICR mice of either sex, weighing 14-17 g were used. Animals were housed in groups of four or five and were given food and water ad libitum and maintained on a 11 hour light: 13 hour dark cycle. All of the experimental groups had 12 animals per group. dl-THP was dissolved in double distilled water and administered orally 1 hour before testing at concentrations as detailed below, with a total injection volume of 10 ml/kg. For the control group, double-distilled water was used as the vehicle. All procedures were carried out in a quiet, air-conditioned laboratory between 08:00 and 13:00 at ambient temperature of 20-22° C. At the end of each session any boluses were removed and the box was thoroughly wiped with 70% ethanol. The elevated plus-maze is made of wood as a horizontal cross consisting of two open arms (25×5 cm) and two opposite arms (25×5 cm) enclosed by 20 cm high walls. The arms extend from a central platform having dimensions of 5×5 cm. The plus-maze is elevated to a height of 40 cm from the floor. The maze is put inside a box with dimensions of 30×30×50 cm. After the hole-board test, the mice are immediately placed on the central platform of the maze facing a closed arm. The number of arm entries and the time spent into the open and closed arm are counted for 5 minutes (Pellow S et al., “Anxiolytic and anxiogenic drug effects on exploratory activity in an elevated plus-maze: a novel test of anxiety in the rat.”, Pharmacol Biochem Behav. March 1986;24(3):525-9; PMID: 2871560). Arm entry was defined as all four feet in the arm. The total number of arm entries provided a measure of general activity. […] The results from the locomotor activity test and the elevated plus-maze test are expressed as mean±standard error of mean (SEM). All data were submitted to analysis of variance (ANOVA). Post hoc comparisons between individual treatments and controls of the locomotor activity test, the hole-board test and the elevated plus-maze test were made using Dunnett's t-test. The level of significance was considered to be p<0.05.

The target in the next data set is α-2 adrenoceptors. As to conditions: rat cerebral cortex; previously performed studies; cited from earlier work.
The test system of data set [5] is ICR mice. Put plainly: Horizontal-wire test. It counts as in vivo. As to conditions: up to 30 mg/kg orally. Here is the method: ICR mice of either sex, weighing 14-17 g were used. Animals were housed in groups of four or five and were given food and water ad libitum and maintained on a 11 hour light: 13 hour dark cycle. All of the experimental groups had 12 animals per group. dl-THP was dissolved in double distilled water and administered orally 1 hour before testing at concentrations as detailed below, with a total injection volume of 10 ml/kg. For the control group, double-distilled water was used as the vehicle. The mice are lifted by the tail and allowed to grasp a horizontally strung wire (1 mm diameter, 15 cm long and placed 20 cm above the table) with their forepaws and released (Bonetti E P et al., Psychophannacology (Berl). 1982;78(1):8-18; PMID: 6292984).

In a further data set the test system is mice. As to conditions: cited from earlier work.
Where [6] appears, read: 1, 10 and 30 mg/kg orally, dose-dependent, 5 minute test.

By LD50 is commonly meant the dose at which mortality reaches 50%. What is called Ki is the equilibrium dissociation constant of an inhibitor or competing ligand from its target. What is called IC50 is the midpoint of a concentration-inhibition curve. `COc1cc2c(cc1OC)C1Cc3ccc(OC)c(OC)c3CN1CC2` (racemic) [dl-THP, 5,8,18,13a-tetrahydro-2,3,9,10-tetramethoxy-6H-dibenzo [a,q] quinolizine]: the “number of head-dips (Dunnett's test)” value in the data set on ICR mice [1] (10 mg/kg orally) is given as “significantly reduced”. In addition, the number of head-dips result in the data set on ICR mice [1] (30 mg/kg orally) is recorded as “significantly reduced”. In addition, in the data set with ICR mice [1] (30 mg/kg orally), the time spent head-dipping entry is reported as “significantly reduced”. Further, the LD50 in the data set on rats is 930 mg/kg; in the data set on mice (mice, sub-cutaneous administration), 670 mg/kg; in the data set on mice (mouse, in vivo, po) it was 1160 mg/kg. Also, the results for the “reduction of locomotor activity” value in the data set with ICR mice [2] (1 mg/kg orally), in the data set with ICR mice [2] (10 mg/kg orally) and in the data set on ICR mice [2] (30 mg/kg orally) were 33%, 33% and 36%, respectively. For the same molecule, the Ki on α-1 adrenoceptors was 4.7 µM; in data set [3] (read-out: Ki, inhibition of binding of [3H]-flunitrazepam to the BDZ binding site of the GABAA receptor), 518 µM; at α-2 adrenoceptors it was 4.97 µM. Besides, the IC50 in data set [3] (read-out: IC50, inhibition of binding of [3H]-flunitrazepam to the BDZ binding site of the GABAA receptor) was found to be 836 µM. Also, the “open arm parameters versus controls (Dunnett's test)” value with ICR mice [4] (1 mg/kg orally) is given as “significantly differed from controls”. Moreover, the “total number of arm entries” value in the data set on ICR mice [4] (1, 10 and 30 mg/kg orally, 5 minute test) is listed as “did not significantly alter”. The “percentage of open arm entries” value in the data set with ICR mice [4] (setting [6]) is recorded as “significantly elevated”. Further, the “percentage of time spent on the open arms” value in the data set with ICR mice [4] (setting [6]) is “significantly elevated”. In addition, in the data set on ICR mice [5], the “muscle-relaxant effect, grasping of horizontal wire” value is given as “without effect”.
